Earlier results, collected in publication PMC7395068, “The evolution of strategies to minimise the risk of human drug-induced liver injury (DILI) in drug discovery and development” (Archives of Toxicology, 2020).
Where a name gives a salt, the structure may show the parent alone. Read-outs that look alike come from different tables or passages of the source.

Experiments:
human hepatocytes = details: cited from earlier work
[1] = system: THLE or HepG2 cells, isolated mitochondria, BSEP; details: cited from earlier work
[2] = system: primary human hepatocytes, NIH3T3 fibroblasts, BSEP, CYP3A4; details: cited from earlier work
[3] = cited from earlier work
[4] = ref Chen 2016; cited from earlier work
[5] = system: isolated mouse liver mitochondria; details: cited from earlier work; for in vitro data EC2<=1x Cmax: In vitro Assay
[6] = In vitro Assay, ref Schadt 2015

Compound | Structural based (HCI) (human hepatocytes; In vitro Assay, ref Xu 2008) | In vivo DILI ([3]; ref Xu 2008) | Partition Hybrid HRM Score ([1]; In vitro Assay, ref Aleo 2019) | Ro2 Hybrid HRM Score ([1]; In vitro Assay, ref Aleo 2019) | DILI +VE (5-8), DILI -VE (-4) [4] | DILI severity category [4] | further results
COc1cc2c(c(OC)c1OC)-c1ccc(OC)c(=O)cc1[C@@H](NC(C)=O)CC2 [colchicine] | – | – | – | – | – | – | Structural based (HCI) (human hepatocytes): -VE; Partition Hybrid HRM Score [1]: -VE; Cellular toxicity (3T3 cells) [2]: +VE; Combined Assay [2]: -VE; GSH adduct HML [2]: -VE; Hepatocyte cellular toxicity [2]: -VE; MitoTox 3T3 [2]: -VE; TDI CYP3A4 [2]: -VE; hBSEP inhibition [2]: -VE
CC(=O)N(O)CCCCCNC(=O)CCC(=O)N(O)CCCCCNC(=O)CCC(=O)N(O)CCCCCN [deferoxamine] | +VE | +VE | +VE | +VE | +VE | vLess-DILI-Concern | In vivo DILI ([3]; ref Aleo 2019): +VE
C[C@H]1O[C@@H](O[C@H]2[C@@H](O)C[C@H](O[C@H]3[C@@H](O)C[C@H](O[C@H]4CC[C@@]5(C)[C@H](CC[C@@H]6[C@@H]5C[C@@H](O)[C@]5(C)[C@@H](C7=CC(=O)OC7)CC[C@]65O)C4)O[C@@H]3C)O[C@@H]2C)C[C@H](O)[C@@H]1O [digoxin] | -VE | – | – | -VE | – | – | Partition Hybrid HRM Score [1]: -VE; Cellular toxicity (3T3 cells) [2, 6]: -VE; Combined Assay [2, 6]: -VE; GSH adduct HML [2, 6]: -VE; Hepatocyte cellular toxicity [2, 6]: -VE; MitoTox 3T3 [2, 6]: -VE; TDI CYP3A4 [2, 6]: -VE; hBSEP inhibition [2, 6]: -VE
Cc1c(N(C)CS(=O)(=O)[O-])c(=O)n(-c2ccccc2)n1C.[Na+] [dipyrone] | – | – | – | – | – | – | in vitro data EC20<=2uM [5]: +VE
C=C1CC[C@H](O)C/C1=C/C=C1\CCC[C@]2(C)[C@@H]([C@H](C)/C=C/[C@H](C)C(C)C)CC[C@@H]12 [ergocalciferol] | -VE | -VE | -VE | -VE | -VE | vNo-DILI-Concern | In vivo DILI ([3]; ref Aleo 2019): -VE
CC(=O)OCC(=O)[C@@]1(O)CC[C@H]2[C@@H]3CCC4=CC(=O)CC[C@]4(C)[C@@]3(F)[C@@H](O)C[C@@]21C [fludrocortisone acetate] | -VE | -VE | -VE | -VE | – | – | In vivo DILI ([3]; ref Aleo 2019): -VE
CC(C)NCC(O)c1cc(O)cc(O)c1 (stereo not drawn) [metaproterenol sulfate] | -VE | – | -VE | -VE | – | – | –
CC[C@@H](CO)NC(=O)[C@@H]1C=C2c3cccc4c3c(cn4C)C[C@H]2N(C)C1 [methysergide maleate] | -VE | -VE | – | – | – | – | In vivo DILI ([3]; ref Aleo 2019): -VE; Partition Hybrid HRM Score [1]: -VE; Ro2 Hybrid HRM Score [1]: -VE
Cc1ncc([N+](=O)[O-])n1CCO [metronidazole] | +VE | – | -VE | -VE | – | – | –
Cc1cn(-c2cc(NC(=O)c3ccc(C)c(Nc4nccc(-c5cccnc5)n4)c3)cc(C(F)(F)F)c2)cn1 [nilotinib] | – | – | – | – | – | – | in vitro data EC2<=1x Cmax ([5]; ref Porceddu 2012): +VE
NC(=O)c1ncn([C@@H]2O[C@H](CO)[C@@H](O)[C@H]2O)n1 [ribavirin] | -VE | -VE | -VE | -VE | -VE | Ambiguous DILI-concern | –
Cc1cc2nc3c(=O)[nH]c(=O)nc-3n(C[C@H](O)[C@H](O)[C@H](O)CO)c2cc1C [riboflavin] | – | – | – | – | – | – | in vitro data EC2<=1x Cmax ([5]; ref Porceddu 2012): -VE
CN[C@H]1CC[C@@H](c2ccc(Cl)c(Cl)c2)c2ccccc21 [sertraline] | -VE | -VE | – | – | +VE | vLess-DILI-Concern | In vivo DILI ([3]; […]): -VE
CC(=O)S[C@@H]1CC2=CC(=O)CC[C@]2(C)[C@H]2CC[C@@]3(C)[C@@H](CC[C@@]34CCC(=O)O4)[C@H]12 [spironolactone] | +VE | +VE | – | – | +VE | vLess-DILI-Concern | –
NCCS(=O)(=O)O [taurine] | – | – | – | – | – | – | in vitro data EC20<=2uM ([5]; isolated mouse liver mitochondria, EC20<=2uM, ref Porceddu 2012): -VE
CC[C@H]1OC(=O)[C@H](C)C(=O)[C@H](C)[C@@H](O[C@@H]2O[C@H](C)C[C@H](N(C)C)[C@H]2O)[C@](C)(OC)C[C@@H](C)C(=O)[C@H](C)[C@H]2N(CCCCn3cnc(-c4cccnc4)c3)C(=O)O[C@]12C [telithromycin] | +VE | +VE | +VE | +VE | +VE | vMost-DILI-Concern | In vivo DILI ([3]; ref Aleo 2019): +VE
CCCc1nc2c(C)cc(-c3nc4ccccc4n3C)cc2n1Cc1ccc(-c2ccccc2C(=O)O)cc1 [telmisartan] | -VE | -VE | +VE | +VE | +VE | vLess-DILI-Concern | In vivo DILI ([3]; ref Aleo 2019): +VE; In vivo DILI ([3]; ref Schadt 2015): -VE; Cellular toxicity (3T3 cells) [2]: -VE; Combined Assay [2]: +VE; GSH adduct HML [2]: -VE; Hepatocyte cellular toxicity [2]: +VE; MitoTox 3T3 [2]: -VE; TDI CYP3A4 [2]: -VE; hBSEP inhibition [2]: +VE
Nc1nc2nc[nH]c2c(=S)[nH]1 [thioguanine] | -VE | – | -VE | -VE | – | – | –
CN1C(=O)OC(C)(C)C1=O [trimethadione] | -VE | +VE | – | – | -VE | Ambiguous DILI-concern | –
C[C@H](CCC(=O)O)[C@H]1CC[C@H]2[C@@H]3[C@@H](O)C[C@@H]4C[C@H](O)CC[C@]4(C)[C@H]3CC[C@]12C [ursodeoxycholic acid] | -VE | -VE | – | – | -VE | Ambiguous DILI-concern | –
bacitracin | -VE | -VE | – | – | -VE | vNo-DILI-Concern | –
